Measurements taken from paper PMC9297664, “Cationic peptide carriers enable long-term delivery of insulin-like growth factor-1 to suppress osteoarthritis-induced matrix degradation” (Arthritis Research & Therapy, 2022).
“Also recorded” adds a separate entry of the source.

How the values were obtained:
[1] = test system: chondrocytes in IL-1α treated cartilage explants; experiment: Chondrocyte viability in cartilage (FDA/PI live-dead staining); assay type: cell-based, bovine; conditions: IL-1α 2 ng/mL, days 8 and 16
Procedure: (§1) Media was collected and changed every 2 days and IL-1α was replenished with each media change. […] IL-1α is chosen for this in-vitro post-traumatic (PTOA) model as it is elevated during the inflammatory phase following an injury and causes degradation of aggrecans, collagens, inhibits proteoglycan synthesis, and alters chondrocyte viability. 2 ng/mL concentration was chosen as it represents a moderately aggressive cytokine treatment.
On days 8 and 16 of culture, 100 μm thick slices were cut from the center of cartilage disks as described before. Cartilage slices were stained with FDA (4 mg/ml in PBS) and PI ([…] in PBS) for 5 min. FDA stained viable cells green and PI stained the non-viable cells red. Slices were washed with PBS and imaged using a fluorescence microscope (Nikon Eclipse TS2R) at 4× objective. The viable and non-viable cell images were overlaid using ImageJ.

[2] = Depth of penetration, 1-D transport chamber, confocal imaging, absorption then desorption; assay type: in vitro ADME, bovine
Procedure: The chamber was placed in a covered petri dish with DI water inside an incubator at 37 °C under gentle shaking. After 24 h, a 100 μm slice was cut from the center of the explant and imaged using a confocal microscope (Zeiss LSM 800). Cy5 (red channel) was excited 640 nm laser and FITC (green channel) was excited using a 488 nm laser. Z-stacks of images from both channels were obtained and maximum intensity along the z-axis was projected. The intensity across the thickness to represent the penetration concentration profile was plotted along a straight line from the superficial to deep zone using FIJI.

[3] = test system: IL-1 and TNF-α challenged cartilage; conditions: cited from earlier work
Excerpt: Media was collected and changed every 2 days and IL-1α was replenished with each media change.

[4] = test system: IL-1α treated cartilage explants; experiment: Nitrite release from cartilage to medium (Griess assay); assay type: cell-based, bovine; conditions: IL-1α 2 ng/mL; for Nitrite production: days 2, 8 and 16
Procedure: as §1
Nitrite content was measured using the Griess assay as a marker of nitric oxide (NO) release from cartilage into the medium. Equal volumes of Griess reagent and culture media collected every two days were mixed and incubated at room temperature for 15 min, and absorbance at 540 nm was measured using a microplate reader (Synergy H1, Biotek). Sodium nitrite solution in DMEM was used as a standard to convert absorbance readings to nitrite content in the sample medium.

[5] = parameters: method as in 3 sources, ref 37 = [37]; PMID 24470361; doi:10.1002/art.38357; 37. Loffredo FS Pancoast JR Cai L Vannelli T Dong JZ Lee RT Targeted delivery to cartilage is critical for in vivo efficacy of insulin-like growth factor 1 in a rat model of osteoarthritis Arthritis R ||| ref 42 = [42]; PMID 20722014; doi:10.1002/art.27709; 42. Miller RE Grodzinsky AJ Cummings K Plaas AHK Cole AA Lee RT Intraarticular injection of heparin-binding insulin-like growth factor 1 sustains delivery of insulin-like growth factor 1 to cartilage ||| ref 43 = [43]; PMID 30487252; doi:10.1126/scitranslmed.aat8800; 43. Geiger BC Wang S Padera RF Grodzinsky AJ Hammond PT Cartilage-penetrating nanocarriers improve delivery and efficacy of growth factor treatment of osteoarthritis Sci Transl Med 2018 10 eaat8800 10; conditions: cited from earlier work; for Detection in cartilage samples: rat cartilage, 6 days post-IA injection
endplate chondrocytes = conditions: IGF-1 administration; cited from earlier work
[6] = test system: human OA cartilage explants; parameters: method as in PMID 18050312; conditions: cited from earlier work
[7] = test system: IL-1α treated cartilage explants; experiment: GAG loss from cartilage (DMMB), IL-1α-challenged explant culture post-traumatic OA model; assay type: cell-based, bovine; conditions: IL-1α 2 ng/mL
Procedure: as §1
After 16 days of culture, the cartilage explants were weighed and digested using Proteinase-K solution in Tris buffer at pH 8. The cumulative GAG released to the media and the residual GAG content in the digested tissue explants was measured using DMMB assay. The GAG content was expressed as a percentage of the total GAG content (in media + residual GAG in the digested explant).

[8] = test system: IL-1α treated cartilage explants; experiment: Cellular metabolism in cartilage explants (AlamarBlue); assay type: cell-based, bovine; conditions: IL-1α 2 ng/mL, days 8 and 16
Procedure: as §1
On days 8 and 16 of culture, cellular metabolism in cartilage explants was determined by measuring the metabolic oxidation activity by using AlamarBlue assay. Briefly, cartilage explants were individually incubated with media containing 1× resazurin sodium salt for 3 h in the dark at 37 °C and 5% CO2. Cell metabolic activity was estimated by measuring fluorescence at 530 nm excitation and 590 nm emission wavelengths using a microplate reader (Synergy H1, Biotek).

rat knee joints = conditions: post-IA injection in ACL transected (ACLT) rat knee joints, compared to free IGF-1; cited from earlier work
Excerpt: The high negative FCD of cartilage resulting from the negatively charged GAGs provides a unique opportunity to make drug cartilage penetrating using cationic carriers.

[9] = single dose 1000 ng/ml IGF-1 (S), free or as conjugate

Substance: IGF-1: Human recombinant insulin-like growth factor-1, ~7.6 kDa pro-anabolic growth factor (PeproTech)
- Chondrocyte viability ([1]; continuous dose 100 ng/ml (C)): match the response from the untreated control condition
- Chondrocyte viability ([1]; single dose 100 ng/ml (S)): not effective in rescuing chondrocyte metabolic activity or viability
- Chondrocyte viability [1, 9]: failed to rescue the reduced cell metabolism and viability over the long-term; also recorded: not effective
- Depth of penetration from superficial to deep zone [2]: penetrated through the full thickness of cartilage
- Retention in cartilage after desorption [2]: most of the free IGF-1 desorbed out of the cartilage
- Time for desorption out of the cartilage [2]: ≤ 24 h
- Saturating concentration for suppression of GAG loss ([3]; IL-1 and TNF-α challenged cartilage culture models, multiple dosing): 100 ng/mL
- Concentration at which the therapeutic effect saturates (suppression of IL-1α-induced catabolic activity) ([3]; similar cartilage explant culture model): 100 ng/mL
- Cumulative nitrite levels ([4]; continuous dose 100 ng/ml (C), 16 days): significantly suppressed the IL-1-induced cumulative nitrite levels
- Nitrite production ([4]; single dose 100 ng/ml (S)): suppressed nitrite production only on day 2
- Nitrite production [4, 9]: suppressed nitrite production only on day 2
- Retention in cartilage / joint tissues ([5]; 24 h post-IA injection in rats): no free IGF-1 was detectable in any joint tissues
- Retention in cartilage ([5]; 2 days post-IA injection in rat knees): no retention of free IGF-1 was observed in cartilage
- Detection in cartilage samples [5]: no trace of free IGF-1 was detectable
- Decrease of MMP-13 expression (endplate chondrocytes): 50%
- Increase of proteoglycan synthesis ([6]; 3 ng/ml IGF-1, milder degree of OA explants (MANKIN score 4)): 1.8 fold
- Enhancement of proteoglycan synthesis ([6]; 30 ng/ml IGF-1, advanced OA cartilage explants (MANKIN score 8)): 2.6 fold
- GAG loss to media ([7]; continuous dose 100 ng/ml (C), replenished every 2 days, 16-day culture): keep the GAG loss levels down to control levels
- GAG loss to media ([7]; single dose 100 ng/ml (S), first 2 days only, day 2): significantly inhibited GAG loss by day 2
- Cumulative GAG loss to media ([7]; single dose 1000 ng/ml IGF-1 (S), free or as conjugate, 16-day culture): remained ineffective in providing a prolonged effect
- Chondrocyte metabolic activity ([8]; continuous dose 100 ng/ml (C)): match the response from the untreated control condition
- Chondrocyte metabolic activity ([8]; single dose 100 ng/ml (S)): not effective in rescuing chondrocyte metabolic activity or viability
- Chondrocyte metabolic activity [8, 9]: failed to rescue the reduced cell metabolism and viability over the long-term; also recorded: ineffective in rescuing the reduced metabolic rate

Substance: PAMAM-IGF-1: IGF-1 carried by polyamidoamine (PAMAM) dendrimer cationic nanoparticles (Gen 6, 58 kDa) [reference compound]
- Matrix degradation and osteophyte formation (rat knee joints): significantly suppressed matrix degradation and osteophyte formation
- Detection in cartilage samples [5]: detected
- Duration of bioavailability of IGF-1 in the knee joint space ([5]; rat knee joint space post-IA injection): 30.4 days
